Measurements taken from PubChem BioAssay (NCI).
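Assay format: 96-well plates, 48-hour exposure. GI50: concentration for 50% inhibition of growth. The concentration for full growth arrest is given as TGI.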

How the values were obtained:
Experiment in all cases: NCI anticancer screen, dose series, 48 h
[1] = system: 786-0 renal
[2] = system: A498 renal
[3] = system: A549 NSCLC
[4] = system: ACHN renal
[5] = system: BT-549 breast
[6] = system: CAKI-1 renal
[7] = system: CCRF-CEM leukemia
[8] = system: COLO 205 colon
[9] = system: DU-145 prostate
[10] = system: EKVX NSCLC
[11] = system: HCC-2998 colon
[12] = system: HCT-116 colon
[13] = system: HCT-15 colon
[14] = system: HOP-62 NSCLC
[15] = system: HS 578T breast
[16] = system: HT29 colon
[17] = system: IGROV1 ovarian
[18] = system: K-562 leukemia
[19] = system: KM12 colon
[20] = system: LOX IMVI melanoma
[21] = system: M14 melanoma
[22] = system: MALME-3M melanoma
[23] = system: MCF7 breast
[24] = system: MDA-MB-231 breast
[25] = system: MDA-MB-435
[26] = system: MOLT-4 leukemia
[27] = system: NCI-H226 lung
[28] = system: NCI-H23 lung
[29] = system: NCI-H460 lung
[30] = system: NCI-H522 lung
[31] = system: NCI/ADR-RES ovarian
[32] = system: OVCAR-3 ovarian
[33] = system: OVCAR-4 ovarian
[34] = system: OVCAR-5 ovarian
[35] = system: OVCAR-8 ovarian
[36] = system: PC-3 prostate
[37] = system: RPMI-8226 leukemia
[38] = system: RXF 393 renal
[39] = system: SF-268 CNS
[40] = system: SF-295 CNS
[41] = system: SF-539 CNS
[42] = system: SK-MEL-2 melanoma
[43] = system: SK-MEL-28 melanoma
[44] = system: SK-MEL-5 melanoma
[45] = system: SK-OV-3 ovarian
[46] = system: SN12C renal
[47] = system: SNB-19 CNS
[48] = system: SNB-75 CNS
[49] = system: SR leukemia
[50] = system: SW-620 colon
[51] = system: T-47D breast
[52] = system: TK-10 renal
[53] = system: U251 CNS
[54] = system: UACC-257 melanoma
[55] = system: UACC-62 melanoma
[56] = system: UO-31 renal
[57] = system: HL-60(TB) leukemia
[58] = system: HOP-92 NSCLC

ClCc1ccc(Cn2cnc3nc(Cl)nc(Cl)c32)cc1 gave a GI50 [1] of 0.417 µM, a TGI [1] of 890 nM and a GI50 [2] of 4.36 µM. For the same compound, the TGI [2] was 8.48 µM, the GI50 [3] was 1910 nM and the TGI [3] was 3.64 µM. For the same compound, the GI50 [4] was 523 nM, the TGI [4] was 953 nM and the GI50 [5] was 1.87 µM. The TGI [5] was 3.48 µM, the GI50 [6] was 1500 nM and the TGI [6] was 2.86 µM. The GI50 [7] was 1790 nM, the TGI [7] was 6.19 µM and the GI50 [8] was 5.66 µM. For the same compound, the TGI [8] was > 20.5 µM, the GI50 [9] was 0.444 µM and the TGI [9] was 1120 nM. The GI50 [10] was 704 nM, the TGI [10] was 1.88 µM and the GI50 [11] was 1620 nM. It also gave a TGI [11] of 3.18 µM, a GI50 [12] of 235 nM and a TGI [12] of 1260 nM. For the same compound, the GI50 [13] was 0.481 µM, the TGI [13] was 1030 nM and the GI50 [14] was 1980 nM. The TGI [14] was 3.74 µM, the GI50 [15] was 19.2 µM and the TGI [15] was 44.8 µM. It also gave a GI50 [16] of 970 nM, a GI50 [17] of 1370 nM and a TGI [17] of 2720 nM. For the same compound, the GI50 [18] was 2520 nM, the TGI [18] was > 28.8 µM and the GI50 [19] was 677 nM. For the same compound, the TGI [19] was 1.48 µM, the GI50 [20] was 487 nM and the TGI [20] was 1.23 µM. The GI50 [21] was 1310 nM, the TGI [21] was 2830 nM and the GI50 [22] was 1600 nM. For the same compound, the TGI [22] was 3.24 µM, the GI50 [23] was 663 nM and the TGI [23] was 2360 nM. It also gave a GI50 [24] of 444 nM, a TGI [24] of 926 nM and a GI50 [25] of 1.71 µM. It also gave a TGI [25] of 3.19 µM, a GI50 [26] of 1680 nM and a TGI [26] of 5.26 µM. The GI50 [27] was 0.946 µM, the TGI [27] was 2920 nM and the GI50 [28] was 1840 nM. It also gave a TGI [28] of 3.65 µM, a GI50 [29] of 3.65 µM and a TGI [29] of 9.19 µM. For the same compound, the GI50 [30] was 1850 nM, the TGI [30] was 4.41 µM and the GI50 [31] was 1770 nM. The TGI [31] was 3.36 µM, the GI50 [32] was 0.687 µM and the TGI [32] was 1450 nM. The GI50 [33] was 1.57 µM, the TGI [33] was 3.03 µM and the GI50 [34] was 1800 nM. For the same compound, the TGI [34] was 3.54 µM, the GI50 [35] was 1.84 µM and the TGI [35] was 3.66 µM. The GI50 [36] was 2900 nM, the TGI [36] was 7.98 µM and the GI50 [37] was 1.68 µM. It also gave a TGI [37] of 28.3 µM, a GI50 [38] of 1300 nM and a TGI [38] of 3.24 µM. For the same compound, the GI50 [39] was 0.629 µM, the TGI [39] was 1430 nM and the GI50 [40] was 1.75 µM. The TGI [40] was 3.27 µM, the GI50 [41] was 593 nM and the TGI [41] was 1140 nM. It also gave a GI50 [42] of 1.41 µM, a TGI [42] of 3.06 µM and a GI50 [43] of 1.86 µM. It also gave a TGI [43] of 4 µM, a GI50 [44] of 0.801 µM and a TGI [44] of 3.75 µM. For the same compound, the GI50 [45] was 2360 nM, the TGI [45] was 5.7 µM and the GI50 [46] was 1410 nM. For the same compound, the TGI [46] was 3.15 µM, the GI50 [47] was 3.01 µM and the GI50 [48] was 0.656 µM. For the same compound, the TGI [48] was 1480 nM, the GI50 [49] was 4.16 µM and the TGI [49] was > 100 µM. It also gave a GI50 [50] of 1470 nM, a TGI [50] of 3.28 µM and a GI50 [51] of 1.36 µM. The TGI [51] was 4.82 µM, the GI50 [52] was 0.43 µM and the TGI [52] was 932 nM. The GI50 [53] was 0.772 µM, the TGI [53] was 1960 nM and the GI50 [54] was 1950 nM. The TGI [54] was 4.33 µM, the GI50 [55] was 974 nM and the TGI [55] was 2540 nM. The GI50 [56] was 1.41 µM and the TGI [56] was 2880 nM.

For Clc1ccc(N=CNc2ccc(-c3nc4ccccc4[nH]3)cc2)cc1, the GI50 [1] was 68.1 µM, the TGI [1] was > 100000 nM and the GI50 [3] was > 100000 nM. For the same compound, the TGI [3] was > 100 µM, the GI50 [4] was > 100000 nM and the TGI [4] was > 100000 nM. It also gave a GI50 [5] of 20.7 µM, a TGI [5] of 57.3 µM and a GI50 [6] of 827 nM. For the same compound, the TGI [6] was 42.5 µM, the GI50 [8] was 3.99 µM and the TGI [8] was > 100 µM. The GI50 [9] was 59.2 µM, the TGI [9] was > 100000 nM and the GI50 [10] was 482 nM. The TGI [10] was 34.5 µM, the GI50 [12] was > 100000 nM and the TGI [12] was > 100000 nM. For the same compound, the GI50 [13] was 33.1 µM, the TGI [13] was > 100000 nM and the GI50 [57] was 631 nM. For the same compound, the TGI [57] was > 100 µM, the GI50 [14] was > 100000 nM and the TGI [14] was > 100 µM. For the same compound, the GI50 [58] was 59.1 µM, the TGI [58] was > 100 µM and the GI50 [15] was 91.9 µM. The TGI [15] was > 100 µM, the GI50 [17] was > 100000 nM and the TGI [17] was > 100000 nM. The GI50 [18] was 1560 nM, the TGI [18] was 17.2 µM and the GI50 [19] was 691 nM. For the same compound, the TGI [19] was 18.5 µM, the GI50 [20] was 1370 nM and the TGI [20] was 24.8 µM. For the same compound, the GI50 [21] was > 100000 nM, the TGI [21] was > 100000 nM and the GI50 [24] was > 100000 nM. The TGI [24] was > 100000 nM, the GI50 [25] was 6.88 µM and the TGI [25] was > 100 µM. For the same compound, the GI50 [26] was > 100000 nM, the TGI [26] was > 100 µM and the GI50 [27] was 65.4 µM. For the same compound, the TGI [27] was > 100000 nM, the GI50 [29] was 17.7 µM and the TGI [29] was > 100 µM. The GI50 [30] was > 100000 nM, the TGI [30] was > 100 µM and the GI50 [32] was 5.35 µM. The TGI [32] was > 100000 nM, the GI50 [33] was 48.4 µM and the TGI [33] was > 100 µM. For the same compound, the GI50 [34] was > 100000 nM, the TGI [34] was > 100 µM and the GI50 [35] was 64.1 µM. For the same compound, the TGI [35] was > 100 µM, the GI50 [36] was > 100000 nM and the TGI [36] was > 100 µM. For the same compound, the GI50 [37] was 7.57 µM, the TGI [37] was > 100 µM and the GI50 [38] was > 100000 nM. For the same compound, the TGI [38] was > 100 µM, the GI50 [39] was 19.6 µM and the TGI [39] was > 100000 nM. For the same compound, the GI50 [40] was 6.18 µM, the TGI [40] was > 100 µM and the GI50 [42] was 76.6 µM. For the same compound, the TGI [42] was > 100 µM, the GI50 [43] was 22.8 µM and the TGI [43] was 63.6 µM. The GI50 [44] was 39.9 µM, the TGI [44] was > 100 µM and the GI50 [45] was > 100000 nM. For the same compound, the TGI [45] was > 100 µM, the GI50 [46] was > 100000 nM and the TGI [46] was > 100 µM. For the same compound, the GI50 [47] was > 100 µM, the TGI [47] was > 100 µM and the GI50 [48] was 36.1 µM. For the same compound, the TGI [48] was > 100000 nM, the GI50 [49] was 39.6 µM and the TGI [49] was > 100 µM. For the same compound, the GI50 [50] was > 100000 nM, the TGI [50] was > 100 µM and the GI50 [51] was 42.6 µM. For the same compound, the TGI [51] was > 100 µM, the GI50 [52] was 7.52 µM and the TGI [52] was > 100000 nM. For the same compound, the GI50 [53] was 20.9 µM, the TGI [53] was > 100000 nM and the GI50 [54] was > 100000 nM. For the same compound, the TGI [54] was > 100 µM, the GI50 [55] was 386 nM and the TGI [55] was > 100000 nM. The GI50 [56] was 13.9 µM and the TGI [56] was > 100000 nM.
